Experimental data reported in patent publication US10828344B2, “Antimicrobial yeast preparation and methods for preparation and use thereof” (priority 2016, dated 2020).
Marks after values point to notes of the source that are not given here.

What was measured:
[1] = test system: Escherichia coli 0157:H7 ATCC 700728; experiment: Minimal Inhibitory Concentration test (OD) with bactericidal/static check; type: cell-based; conditions: for Bactericidal or Static check of optically clear MIC tubes, Escherichia coli 0157:H7 ATCC 700728: 0 CFU/ml needed for bactericidal
Description: (§1) Sterile, 12×75 mm plastic test tubes were used to perform the test. 1 mL of the test compositions were placed in the appropriate labeled tubes. 1 mL of each adjusted bacterial inoculum was added to each appropriate labeled tube in the dilution series and mixed. The tubes were closed with loose caps. The tubes were then incubated at 37° C. for 24 hours with the exception of the Campylobacter tubes, which were incubated microaerophilically at 42° C. for 48 hours. At the end of the incubation phases the tubes were examined for turbidity. All optically clear tubes were plated to agar plates to determine if the test article was bactericidal or bacteriostatic. A product was considered to be “bactericidal” if less than 3 CFU were detected (Clear tubes with a few CFU), and “bacteriostatic” if greater the 3 CFU were detected (Clear tubes and growth detected).
(§2) The tubes were examined for turbidity, indicating growth of the organism. […] The lowest concentration of the agent that inhibits growth of the organism, as detected by lack of visual turbidity (matching the negative control) was designated the minimum inhibitory concentration (MIC).
(§3) Additional experiments were performed to determine bactericidal and bacteriostatic effects of preparation made from wine lees from different varietals, effects of aging of preparations on bactericidal and bacteriostatic effectiveness, and to compare effectiveness to conventional antibiotic treatment. Methods were as described above for testing bacteriostatic and bactericidal effects. Preparations were tested against Salmonella enterica (ATCC 8759) and E. coli 0157:H7 (ATCC 700728).
(§4) The following preparations were tested: a lees preparation from Chardonnay grapes that had not been enzymatically treated and had been prepared approximately 2 months before testing (CH16), a lees preparation from Pinot Noir grapes that had not been enzymatically treated and had been prepared approximately 14 months before testing (PNC15), a lees preparation from Pinot Noir grapes that had not been enzymatically treated and had been prepared approximately 2 months before testing (PNC16), a lees preparation from Cabernet Franc grapes that had been enzymatically treated and had been prepared approximately 2 months before testing (CFE16), CELMANAX™ (SCP) (hydrolyzed yeast), and salinomycin, 0.005% solution (antibiotic).

[2] = test system: Salmonella enterica ATCC 8759; experiment: as above; type: cell-based; conditions: 0 CFU/ml needed for bactericidal
Description: as §1, §2, §3, §4

Cryptosporidium oocytes = experiment: In vivo calf study: fecal shedding of Cryptosporidium oocytes; set-up: species or system Cryptosporidium (in Holstein calves)
Description: (§5) An in vivo study was performed to compare effects of lees-based preparations as disclosed herein to conventional commercially available product yeast fermentation product and Decoquinate on performance and health of neonatal Holstein calves. […] PNC16 was compared with CELMANAX™ (SCP) (hydrolyzed yeast) and an antibiotic, DECCOX®-M manufactured by Zoetis Inc., Decoquinate.
(§6) The study was conducted at Spruce Haven Farms, Union Springs, N.Y., a commercial dairy consisting of 1,800 mature cows. There were thirty calf hutches available to conduct the trial that were aligned in one row. The study consisted of thirty female Holstein calves. As calves were born they were successively placed on one of four treatments until 28 calves were assigned, then the remaining 2 calves were assigned to treatment 2 and 3 respectively.
(§7) Fecal samples (˜10-20 g) were obtain via digital stimulation from each calf on day 7, 14 and 21 of life. Samples were sent to the Cornell Diagnostic Laboratory for zinc sulfate floatation to determine type and degree of fecal shedding. Body temperatures were take just prior to fecal collections on day 7, 14 and 21 of life. Fecal consistency scores: were recorded for each calf daily using the following scale: 1=soft, solid consistency, no fluid, 2=semi-solid, mostly solid, 3=runny: semi solid, mostly fluid, 4=watery, all fluid 5=watery with blood.

[3] = In vivo calf study: rectal temperature and fecal consistency score; set-up: species or system Holstein calves
Description: as §5, §6, §7

[4] = In vivo calf study: body weight gain; set-up: species or system Holstein calves
Description: An in vivo study was performed to compare effects of lees-based preparations as disclosed herein to conventional commercially available product yeast fermentation product and Decoquinate on performance and health of neonatal Holstein calves. Lees was prepared as described above (a lees preparation from Pinot Noir grapes that had not been enzymatically treated and had been prepared approximately 6 months before testing (PNC16)). PNC16 was compared with […]) (hydrolyzed yeast) and an antibiotic, DECCOX®-M manufactured by Zoetis Inc., Decoquinate. The study was conducted at Spruce Haven Farms, Union Springs, N.Y., a commercial dairy consisting of 1,800 mature cows. There were thirty calf hutches available to conduct the trial that were aligned in one row. The study consisted of thirty female Holstein calves. As calves were born they were successively placed on one of four treatments until 28 calves were assigned, then the remaining 2 calves were assigned to treatment 2 and 3 respectively. […] Calves were housed in fiberglass hutches (4'×8') with an outside run (4'×6') with straw bedding inside the hutch. Within 2 hr. of birth, calves were offered 4 lb. of colostrum. Thereafter, pasteurized whole milk was offered twice daily (08:00 and 16:00 h) and water and dry calf starter was available at all times in removable buckets. During the morning feeding the liquid (CEL or PNC16) or dry (22.7 mg) test articles were dissolved in the milk. Calves body weights were recorded when moved into the hutches and again at 21 d of life.

cryptosporidiosis = conditions: Moore (2003); cited from earlier work
[5] = In vivo calf study: hematology and haptoglobin; set-up: species or system Holstein calves; conditions: 10 day old calves
Description: An in vivo study was performed to compare effects of lees-based preparations as disclosed herein to conventional commercially available product yeast fermentation product and Decoquinate on performance and health of neonatal Holstein calves. Lees was prepared as described above (a lees preparation from Pinot Noir grapes that had not been enzymatically treated and had been prepared approximately 6 months before testing (PNC16)). PNC16 was compared with […]) (hydrolyzed yeast) and an antibiotic, DECCOX®-M manufactured by Zoetis Inc., Decoquinate. The study was conducted at Spruce Haven Farms, Union Springs, N.Y., a commercial dairy consisting of 1,800 mature cows. There were thirty calf hutches available to conduct the trial that were aligned in one row. The study consisted of thirty female Holstein calves. As calves were born they were successively placed on one of four treatments until 28 calves were assigned, then the remaining 2 calves were assigned to treatment 2 and 3 respectively. […] Blood samples were collected via jugular vein-puncture before the pm milk feeding on day 10 of life. Samples were collected in heparinized vacutainers. Whole blood was analyzed for hematology: red blood count, hematocrit, hemoglobin, mean cell volume, mean cell hemoglobin, mean cell hemoglobin concentration, red cell distribution width, reticulocyte, white blood cell: neutrophil, lymphocyte, monocyte, eosinophil, basophil, platelet, mean platelet volume, platelet, distribution width and procalcitonin. Plasma was obtained by centrifugation at 1,500×g for 15 min. Plasma samples were frozen (-40° C.) and shipped to the Michigan State University (DCPAH) laboratory for haptoglobin analysis.

Eimeria species = experiment: In vivo calf study: fecal shedding of Eimeria species; set-up: species or system Eimeria (in Holstein calves); conditions: day 21 of age (FIG. 4); Control 71.5%
Description: as §5, §6, §7

[6] = 20 Mg/ml (ABX: salinomycin 0.005% solution)
[7] = 40 Mg/ml (ABX: salinomycin 0.005% solution)

CC[C@@H](C(=O)[C@@H](C)[C@@H](O)[C@H](C)[C@@H]1O[C@@H]([C@@H](CC)C(=O)O)CC[C@@H]1C)[C@H]1O[C@]2(C=C[C@@H](O)[C@]3(CC[C@@](C)([C@H]4CC[C@](O)(CC)[C@H](C)O4)O3)O2)[C@H](C)C[C@@H]1C [ABX, salinomycin]
Turbidity Reading (OD), Escherichia coli 0157:H7 ATCC 700728 [1]: .075^c OD | Bactericidal or Static check of optically clear MIC tubes, Escherichia coli 0157:H7 ATCC 700728 [1, 6]: 950 CFU/ml | Bactericidal or Static check of optically clear MIC tubes, Escherichia coli 0157:H7 ATCC 700728 [1, 7]: 950 CFU/ml | Bactericidal or Static check of optically clear MIC tubes, Salmonella enterica ATCC 8759 [2, 6]: 50,000 CFU/ml | Bactericidal or Static check of optically clear MIC tubes, Salmonella enterica ATCC 8759 [2, 7]: 50,000 CFU/ml

CCCCCCCCCCOc1cc2c(O)c(C(=O)OCC)cnc2cc1OCC [DECCOX ®, Decoquinate]
Cryptosporidium Oocytes/g of feces (Cryptosporidium oocytes; Day 1, Control 0): 0 Oocytes/g of feces | % of calves shedding Cryptosporidium oocytes (Cryptosporidium oocytes; Day 1, Control 0.0): 0.0% | % of calves shedding Cryptosporidium oocytes (Cryptosporidium oocytes; Day 7, Control 71.4): 28.6% | Cryptosporidium Oocytes/g of feces (Cryptosporidium oocytes; Day 7, Control 85638): 2^b Oocytes/g of feces | % of calves shedding Cryptosporidium oocytes (Cryptosporidium oocytes; Day 14, Control 85.0): 100.0% | Cryptosporidium Oocytes/g of feces (Cryptosporidium oocytes; Day 14, Control 14153): 209473^a Oocytes/g of feces | % of calves shedding Cryptosporidium oocytes (Cryptosporidium oocytes; Day 21, Control 28.6): 28.6% | Cryptosporidium Oocytes/g of feces (Cryptosporidium oocytes; Day 21, Control 368): 11^b Oocytes/g of feces | Fecal consistency score (FCS) ([3]; between day 12 and 17 d of life, scale 1-5, Control 2.3): 2.4 | Rectal temperature ([3]; day 14, comparison in words): higher (p<005) than PNC16 | Birth wt ([4]; baseline at birth, Control 40.4): 40.2 kg | Body wt gain ([4]; birth through day 21, Control 6.8): 7.3 kg | ADG ([4]; birth through day 21, Control .32): .35 kg/day | Day 21 wt ([4]; day 21 of life, Control 47.1): 47.6^b kg | clinical benefit as preventative treatment for cryptosporidiosis (cryptosporidiosis): no clinical benefit | Basophil (Baso) ([5]; Control 0.01): 0.00 K/ul | Monocyte (Mono) ([5]; Control 0.02): 0.05 K/ul | Eosinophil (Eosin) ([5]; Control 0.03): 0.08 K/ul | Neutrophil (NEUT) ([5]; Control 3.7): 5.1 K/ul | Lymphocyte (LYMPH) ([5]; Control 4.2): 2.4 K/ul | Mean Platelet Volume (MPV) ([5]; Control 5.5): 5.6 fL | Platelet Distribution Width (PDW) ([5]; Control 6.34): 7.72^a fL | Reticulocyte (Ret) ([5]; Control 7.13): 1.49^b K/ul | Red Blood Count (RBC) ([5]; Control 7.4): 7.1 M/uL | White Blood Cell (WBC) ([5]; Control 7.96): 7.67^b K/ul | Hemoglobin (HBG) ([5]; Control 9.4): 8.9 g/dL | Mean Cell Hemoglobin (MCH) ([5]; Control 12.6): 12.4 pg | Hematocrit (HCT) ([5]; Control 29.8): 28.5% | Red Cell Distribution Width (RDW) ([5]; Control 31.4): 30.7% | Mean Cell Hemoglobin Concentration (MCHC) ([5]; Control 31.5): 31.4 g/dL | Mean Cell Volume (MCV) ([5]; Control 40.0): 39.8 fL | Platelet (Plt) ([5]; Control 654.7): 579.8^b K/ul | Neutrophil/Lymphocyte Ratio (NLR) ([5]; Control .87): 2.11^a | Percentages Baso ([5]; percent of white cells, Control 0.19): 0.00% | Percentages Mono ([5]; percent of white cells, Control 0.21): 0.63% | Percentages Eosin ([5]; percent of white cells, Control 0.34): 0.98% | Percentages Neutrophil ([5]; percent of white cells, Control 48.38): 66.63^a % | Percentages Lymphocyte ([5]; percent of white cells, Control 50.87): 31.75^b % | Haptoglobin (Hp) ([5]; plasma, Control 24.13): 64.5 µg/mL | Percent of calves shedding Eimeria (Eimeria species): 0%
